Test results taken from US6071525A, “Whitening cosmetics containing mulberrin” (priority 1997, dated 2000).
“Also recorded” adds a separate entry of the source. Where two headings read alike, the source gives them in different places.

Assays:
tyrosinase [1] = settings: background; cited from earlier work
skin [2] = settings: background; cited from earlier work
skin [3] = settings: background; cited from earlier work; remark: listed apart in the source
skin [4] = assay: Whitening effect (general statement); settings: versus Cortex mori, kojic acid, arbutin and Ramulus mori extract
tyrosinase [5] = assay: Tyrosinase inhibition effect (mushroom tyrosinase, tyrosine substrate, absorbance at 475 nm); format: biochemical; settings: pH 6.8, 37° C., 10 minutes
Protocol: The substrate, tyrosine was used as a solution (0.1 mg/ml) dissolved in 0.05 M sodium phosphate buffer (pH 6.8). […] Then 200 U/ml tyrosinase (0.5 ml) was added thereto, and the reaction performed at the same temperature for 10 minutes. As a control group, buffer solution (0.5 ml) was added instead of the compound. The reaction was quenched by placing the test tube containing the reaction mixture on ice. Absorbance was measured at a wavelength of 475 nm by using a spectrophotometer.

[6] = system: B-16 melanoma (ATCC CRL 6323) cell line; assay: Effect for melanin synthesis in melanocytes (B-16 melanoma); format: cell-based, mouse
Protocol: As melanocytes, commercially available B-16 melanoma (ATCC CRL 6323) cell line derived from mouse was used. The melanoma cell line was inoculated in DMEM culture medium containing glucose (4.5 g/l), 10% serum and 1% antibiotic agent, and cultivated in a 50 ml T-flask at 37° C. After cultivation under a condition of 5% CO2 for 24 hours, the culture solution was treated with 0.05% trypsin containing 0.02% EDTA to isolate cells, which was then inoculated in a 50 ml T-flask and cultivated for 48 hours. At this time, the number of cells was 5.76×10^6 cells/flask. A diluted solution of mulberrin in DMEM medium at a proper concentration was incorporated to the cultivated melanoma cells, and the mixture was cultivated at 37° C. for 5 days. After finishing cultivation, culture medium was thoroughly removed, and the residue was treated with 1 ml of saline-phosphate buffer solution (PBS) containing 0.02% EDTA and 0.05% trypsin to isolate cells, which were then centrifuged for 5 minutes to collect pure cells. The obtained cells were treated with a solution of 5% trichloroacetate (TCA), stirred, and centrifuged. Precipitated melanin was washed with saline-phosphate buffer solution, and treated with 1N NaOH to dissolve melanin therein. Absorbance at 475 nm was measured. Melanin concentration was determined from standard concentration curve of synthetic melanin (produced by Sigma).

O=C1O[C@H]([C@@H](O)CO)C(O)=C1O [Ascorbic acid (vitamin C), Ascorbic acid]
inhibition of tyrosinase (in words) (tyrosinase [1]): relatively low activity in inhibition of tyrosinase

Oc1ccc(O)cc1 [Hydroquinone]
whitening activity (in words) (skin [2]): irreversible whitening activity
carcinogenicity (in words) (skin [3]): recognized as a carcinogen
skin irritation (in words) (skin [3]): irritates the skin strongly

O=c1cc(CO)occ1O [Kojic acid, kojic acid]
inhibition of tyrosinase (in words) (tyrosinase [1]): high activity

CC(C)=CCc1c(-c2ccc(O)cc2O)oc2c(CC=C(C)C)c(O)cc(O)c2c1=O [Mulberrin, mulberrin]
whitening effect compared with conventional whitening agents (in words) (skin [4]): much more intensive whitening effect than conventional whitening agents
IC50 (concentration required for 50% inhibition of tyrosinase activity) (tyrosinase [5]): 0.50 µg/mL
inhibition of melanin synthesis (in words) [6]: very excellent effect in inhibiting melanin synthesis
inhibition at 10 µg/mL ([6]; Mus musculus, B16, 120 h, mulberrin 10 μg/ml, 5 days, 37° C., read-out: Inhibition ratio of melanin synthesis): 54.4%
inhibition at 20 µg/mL ([6]; Mus musculus, B16, 120 h, mulberrin 20 μg/ml, 5 days, 37° C., read-out: Inhibition ratio of melanin synthesis): 66.8%
inhibition at 50 µg/mL ([6]; Mus musculus, B16, 120 h, mulberrin 50 μg/ml, 5 days, 37° C., read-out: Inhibition ratio of melanin synthesis): 74.8%
inhibition at 100 µg/mL ([6]; Mus musculus, B16, 120 h, mulberrin 100 μg/ml, 5 days, 37° C., read-out: Inhibition ratio of melanin synthesis): 89.3%
inhibition of melanin synthesis (in words) ([6]; listed as mulberrin): strong whitening agent inhibiting melanin synthesis in melanocytes; also recorded: very strong inhibition effect of melanin synthesis
Content of melanin ([6]; mulberrin 10 μg/ml, 5 days, 37° C.): 1.95 pg/cell
Content of melanin ([6]; mulberrin 20 μg/ml, 5 days, 37° C.): 1.42 pg/cell
Content of melanin ([6]; mulberrin 50 μg/ml, 5 days, 37° C.): 1.07 pg/cell
Content of melanin ([6]; mulberrin 100 μg/ml, 5 days, 37° C.): 0.46 pg/cell
